Assays:
[1] = molecular target: T1, β3 integrin (Homo sapiens, UniProt P05106); conditions: Gould et al. 1990; cited from earlier work
T1 sequence (P05106 27-788): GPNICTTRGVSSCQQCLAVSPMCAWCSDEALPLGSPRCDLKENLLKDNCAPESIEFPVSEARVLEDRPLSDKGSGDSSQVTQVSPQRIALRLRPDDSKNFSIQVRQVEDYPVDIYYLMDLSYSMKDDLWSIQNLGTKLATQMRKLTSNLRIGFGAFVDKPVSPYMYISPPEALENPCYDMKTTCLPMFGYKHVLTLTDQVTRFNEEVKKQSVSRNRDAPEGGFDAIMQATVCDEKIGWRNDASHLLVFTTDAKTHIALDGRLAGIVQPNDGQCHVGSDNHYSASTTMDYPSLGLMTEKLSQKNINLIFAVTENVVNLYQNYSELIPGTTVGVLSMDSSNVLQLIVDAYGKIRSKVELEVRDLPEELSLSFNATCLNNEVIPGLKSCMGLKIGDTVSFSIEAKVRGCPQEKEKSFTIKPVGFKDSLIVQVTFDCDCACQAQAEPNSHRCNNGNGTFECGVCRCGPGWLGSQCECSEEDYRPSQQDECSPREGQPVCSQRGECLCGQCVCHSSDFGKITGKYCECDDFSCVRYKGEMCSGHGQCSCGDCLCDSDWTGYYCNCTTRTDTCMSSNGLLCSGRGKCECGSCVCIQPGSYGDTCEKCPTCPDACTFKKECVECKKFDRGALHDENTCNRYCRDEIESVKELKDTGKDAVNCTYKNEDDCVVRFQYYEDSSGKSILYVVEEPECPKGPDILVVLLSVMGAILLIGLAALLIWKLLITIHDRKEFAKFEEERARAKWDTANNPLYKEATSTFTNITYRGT

[2] = tested on: hepatic stellate cells (HSC); assay: HSC adhesion assay on coated wells (CyQUANT fluorescence); type: cell-based, rat
Method: CTGF4 is known to be expressed in hepatic stellate cells (HSC) and to induce proliferation and extracellular matrix (ECM) production in these cells. (Williams et al., J Hepatol 32, 754-761, 2000; Paradis et al., Lab Invest 82, 767-774, 2002). The following experiments were carried out to determine if HSCs adhere to CTGF. HSCs were isolated from normal Sprague-Dowley rate by sequential perfusion with pronase/collagenase and purified by density gradient separation as described in Vyas et al. (Gastroenterology 109: 889-898, 1995).
The cells were subsequently detached using 1 mM EDTA PBS (137 mM NaCl, 2.7 mM KCl, 4.3 mM Na2HPO4, 1.4 mM KH2PO4, pH 7.3), washed twice in DMEM and resuspended in serum free medium containing 0.5% BSA. The cells-were plated (1.25×10^4 cells/well) in a 96 well plate coated with one of the following: 2 μg/ml CTGF isoform (CTGF1-4, CTGF3-4, CTGF4), 1 μg/ml laminin, or 4 μg/ml vitronectin and incubated for 20 minutes at 37° C. Subsequently the cells were washed with PBS and the adherent cells were fixed with 10% formalin and stained with CyQUANT GR dye/cell lysis buffer (Molecular Probes , Eugene, Oreg.) according to the manufacturer's instructions. The number of cells that adhered to CTGF isoforms or ECM protein was quantified by measuring the sample fluorescence intensity at Ex/Em: 480/520 nm using a micro-plate reader (CytoFluor™ 2350).
To determine if the CTGF-mediated HSC adhesion was carried out through integrin receptors, the experiment described above were carried out in the presence and absence of 10 mM EDTA. […] It is widely believed that Mn^2+ induces conformational shifts that mimic the physiological activation of β1 and β3 integrins (Roberts et al., J Biol Chem 278: 1975-1985, 2003, van der Pauw et al., J Periodontal Res 37: 317-323, 2002) as Mn^2+-induced activation leads to enhanced ligand-binding affinity and cell adhesion (Mould et al., J Biol Chem 277: 19800-19805, 2002, Loftus & Liddington J Clin Invest 100: S77-81, 1997, Lin et al., J Biol Chem 272: 14236-14243, […]).
Synthetic peptides GRGDsp (1 mM), GRGEsp (1 mM), Echistatin (2 μM) or vehicle buffer alone were added to the, HSC culture medium 30 minutes prior to plating.
In addition, adhesion assays as described in Example 1 were carried out in CTGF4 coated plates in the presence and absence of monoclonal antibody specific for αvβ3 (LM609).

[3] = molecular target: integrin αvβ3 (Homo sapiens, UniProt P05106+P06756); assay: Integrin αvβ3-CTGF immunoprecipitation / immunoblot; type: binding; conditions: 20 μM Echistatin
integrin αvβ3, sequence (P06756 31-889 limits assumed, one chain of several): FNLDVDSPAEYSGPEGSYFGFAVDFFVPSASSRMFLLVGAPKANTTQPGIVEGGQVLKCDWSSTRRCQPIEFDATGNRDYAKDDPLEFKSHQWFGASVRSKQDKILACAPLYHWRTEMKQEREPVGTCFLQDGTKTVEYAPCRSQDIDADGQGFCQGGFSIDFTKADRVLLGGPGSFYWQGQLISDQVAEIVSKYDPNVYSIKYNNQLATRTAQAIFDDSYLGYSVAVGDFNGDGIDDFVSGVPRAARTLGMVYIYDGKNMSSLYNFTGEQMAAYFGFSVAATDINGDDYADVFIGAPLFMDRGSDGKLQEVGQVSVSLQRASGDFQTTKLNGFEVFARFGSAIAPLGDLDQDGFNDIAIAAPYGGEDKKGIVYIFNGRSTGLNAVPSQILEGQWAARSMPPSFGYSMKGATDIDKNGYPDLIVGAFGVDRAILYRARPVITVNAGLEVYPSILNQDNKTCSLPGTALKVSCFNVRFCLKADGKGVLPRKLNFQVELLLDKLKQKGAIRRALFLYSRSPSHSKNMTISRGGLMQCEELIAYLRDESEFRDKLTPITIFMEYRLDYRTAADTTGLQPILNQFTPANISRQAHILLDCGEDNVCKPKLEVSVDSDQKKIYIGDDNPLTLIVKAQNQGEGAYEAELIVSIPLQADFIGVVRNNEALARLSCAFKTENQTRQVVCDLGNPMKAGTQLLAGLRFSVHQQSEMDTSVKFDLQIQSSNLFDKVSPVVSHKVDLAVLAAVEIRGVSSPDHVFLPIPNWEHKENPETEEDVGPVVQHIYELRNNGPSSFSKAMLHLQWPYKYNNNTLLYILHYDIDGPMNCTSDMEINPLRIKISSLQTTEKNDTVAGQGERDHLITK
integrin αvβ3, sequence (P06756 891-1048 partner limits assumed, one chain of several): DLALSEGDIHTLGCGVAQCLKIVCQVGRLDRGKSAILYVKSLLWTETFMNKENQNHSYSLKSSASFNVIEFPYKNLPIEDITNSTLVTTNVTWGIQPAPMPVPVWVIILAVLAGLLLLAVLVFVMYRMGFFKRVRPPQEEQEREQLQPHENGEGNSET
Method: To further characterize the interaction between CTGF4 and integrin αvβ3, each CTGF isoforms (CTGF1-4, CTGF3-4, CTGF4) was individually mixed with αvβ3, followed by immunoprecipitation with rabbit anti-CTGF polyclonal antibody and immunoblotting with anti-αvβ3. Human integrin αvβ3 (2 μg) and each individual CTGF isoform (4 μg) were incubated in 1 ml NP40 buffer with rocking at 4° C. for 2 hours. As a control, 20 μM Echistatin was added prior to adding the CTGF isoforms. Subsequently, polyclonal rabbit anti-CTGF antibody (1:100) or mouse IgG was added to the complex and the mixtures were further incubated at 4° C. for 16 hours. After incubation, 25 ,μl of Protein A was added to each mixture for 1 hour. The samples were separated on 8% SDS-polyacrylamide gels, and transferred onto nitrocellulose. The membrane was then incubated with anti-human αvβ3 monoclonal antibody (1:1000) diluted in TBS/Tween 20 (0.05%) containing 5% non-fat milk. Integrin αvβ3 bound similarly to all CTGF isoforms.

In the case of “Echistatin (QCESGPCCRNCKFLKEGTICKRARGDDMDDYCNGKTCDCPRNPHKGPAT)”, the “effectiveness relative to short RGDX peptides” value [1] is listed as “at least 500 times”, the “inhibition of HSC adherence to CTGF[257-272]” value ([2]; peptide-coated wells, heparin 2 μg/ml) is listed as 40% and the “inhibition of CTGF1-4-mediated HSC adhesion” value ([2]; wells coated 2 μg/ml CTGF1-4, EDTA 10 mM, GRGDsp 1 mM, Echistatin 2 μM) is listed as 58%. The “inhibition of CTGF3-4-mediated HSC adhesion” value ([2]; wells coated 2 μg/ml CTGF3-4, EDTA 10 mM, GRGDsp 1 mM, Echistatin 2 μM) was 62%, the “inhibition of CTGF4-mediated HSC adhesion” value ([2]; wells coated 2 μg/ml CTGF4, EDTA 10 mM, GRGDsp 1 mM, Echistatin 2 μM, antibody/IgG 25 μg/ml, heparin 2 μg/ml) was 69% and the “competition for the binding of αvβ3 with CTGF4” value [3] was “fully competed”.
